IC50 data for five compounds are collected here from patent EP1964834A1, “Sulphonyltryptophanols” (Bayer Schering Pharma Aktiengesellschaft, priority 2007, dated 2008).

Molecules are shown by their SMILES.

In this assay the target is T1, human FSH receptor (Homo sapiens, UniProt P23945).
T1 construct: expressed in transfected cells; host or cells: CHO cells (hFSHR clone 16)
T1 sequence (P23945 18-695): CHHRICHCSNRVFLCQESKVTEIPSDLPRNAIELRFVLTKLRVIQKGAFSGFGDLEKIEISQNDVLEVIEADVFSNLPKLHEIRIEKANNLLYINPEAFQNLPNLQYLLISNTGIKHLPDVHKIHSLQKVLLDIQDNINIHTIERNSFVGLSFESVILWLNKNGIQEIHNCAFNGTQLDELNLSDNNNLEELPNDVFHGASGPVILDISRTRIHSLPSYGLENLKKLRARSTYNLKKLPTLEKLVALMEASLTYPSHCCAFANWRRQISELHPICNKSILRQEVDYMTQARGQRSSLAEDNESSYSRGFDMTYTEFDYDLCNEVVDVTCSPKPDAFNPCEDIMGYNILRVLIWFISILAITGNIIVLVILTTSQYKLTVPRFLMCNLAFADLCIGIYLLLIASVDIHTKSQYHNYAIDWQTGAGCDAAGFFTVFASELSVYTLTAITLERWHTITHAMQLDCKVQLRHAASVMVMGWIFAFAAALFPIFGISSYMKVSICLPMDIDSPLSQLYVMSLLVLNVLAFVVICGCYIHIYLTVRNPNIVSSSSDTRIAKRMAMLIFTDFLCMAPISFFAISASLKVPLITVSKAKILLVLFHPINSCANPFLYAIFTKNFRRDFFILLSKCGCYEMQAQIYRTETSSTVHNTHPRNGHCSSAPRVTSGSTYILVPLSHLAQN
Nature of the assay: HTRF assay for measuring cAMP in cells (FSH antagonism). Particulars: FSH antagonistic effect; hFSHR clone 16 cells (CHO cells stably transfected with the human FSH receptor); in the presence of 1 e-9 mol/I hFSH; 37°C for 2h. Type of assay: cell-based. As to the method: HTRF assay for measuring cAMP in cells
The method is based on a competitive immunoassay between native cAMP, which has been produced by the cells, and cAMP which is labelled with cAMPD2 conjugate. The tracer binding was visualized by a monoclonal antibody, anti-cAMP labelled with cryptate [HTRF = homogeneous time-resolved fluorescence]. The specific signal is inversely proportional to the cAMP concentration of the samples employed. The 665nm/ 620nm fluorescence ratio was evaluated.
The following material was used: 96-well plates for the tissue culture, 96-well plates with black edge and black base (e.g. Fluotrac 600 from Greiner), 96-well plates for the substance dilutions of polypropylene and cAMP Femtomolar (4000wells Kit, CIS Bio International # 62AM5PEJ). The following reagents were used: BSA (bovine serum albumin) Fraction V protease-free, IBMX (3-isobutyl-1-methylxanthine), hFSH (human follicle stimulating hormone), Triton X-100 analytical grade, potassium fluoride analytical grade, G 418 (Geneticin) and Accutase. • Buffer 1 (washing and testing buffer) contained PBS, 1 mM CaCl2, 1 mM MgCl2, 0.2% glucose; 0.1% BSA, 1 mM IBMX. • Buffer 2 (2x lysis buffer) contained 1% Triton X-100 in PBS (without CaCl2 and MgCl2). • Buffer 3 (assay buffer) contained 50 mM potassium phosphate buffer (pH 7.0); 800 mM potassium fluoride; 0.2% BSA (always added fresh).
On day 1, the cells were seeded in 96-well plates (3x10^4 cells per well hFSHR clone 16 cells (CHO cells stably transfected with the human FSH receptor in 150 µl of medium). The next day, test substance dilutions were made up. For this purpose, all the substances were diluted in ice-cold buffer 1 (with or without hFSH), and the substance dilutions were placed on ice until applied to the cells.
The cell supernatant was then aspirated off, and the cells were washed 2x with 200 µl of buffer 1. The cells were treated with 60 µl of the appropriate substance concentrations at 37°C for 2h. The cells were then lysed with 60 µl of buffer 2 (put onto the supernatant) (on a plate shaker at RT for 30 min).
The test conjugates (cAMP-D2 and anti-cAMP cryptate, CIS Bio) were diluted in buffer 3 in accordance with the manufacturers' information. The actual mixture for measurement was pipetted into a black 96-well plate (in each case 15 µl of the cell lysate diluted with 35 µl of buffer 1; firstly 25 µl of cAMP-D2 conjugate were pipetted and, after 10 min, 25 µl of the anti-cAMP cryptate were added). This is followed by incubation at RT for 90 minutes. The measurement was carried out in a PheraStar (BMG).
1) hFSHr clone 16 Ham's F12 PSG 10% FCS 700 µg/ml G 418 (Geneticin) from PAA.
Dose-effect curve (hFSH) for the human receptor: 1e-8, 3e-9, 1e-9, 3e-10, 1e-10, 3e-11, 1e-11, 3e-12 mol/l.
The test substances were employed in suitable dilutions in the absence (test for agonism) and in the presence of 1 e-9 mol/I hFSH.
The values of the well ratio were averaged and then entered directly in SigmaPlot versus the concentrations. The maximum and minimum values were determined for each plate, and half the difference is to be regarded as IC50.
Regarding `CNC(=O)c1ccc(-c2ccc(OC(C)C)c(S(=O)(=O)N[C@@H](CO)Cc3c[nH]c4ccccc34)c2)cc1Cl` [Example 9, 3-Chloro-3'-[(R)-2-hydroxy-1-(1H-indol-3-ylmethyl)-ethylsulfamoyl]-4'-isopropoxybiphenyl-4-carboxylic acid methylamide], the IC50 was determined as 0.18 µM.

For the compound `CNC(=O)c1ccc(C#Cc2ccc(OC)c(S(=O)(=O)N[C@H](Cc3c[nH]c4ccccc34)C(C)(C)O)c2)cc1` [Example 22, 4-{3-[(R)-2-Hydroxy-1-(1H-indol-3-ylmethyl)-2-methyl-propyisulfamoyl]-4-methoxyphenylethynyl}-N-methyl-benzamide], the IC50 was determined as 3.5 µM.

Regarding `CNC(=O)c1ccc(C#Cc2ccc(OC)c(S(=O)(=O)N[C@@H](CO)Cc3c[nH]c4ccccc34)c2)cc1` [Example 18, 4-{3-[(R)-2-Hydroxy-1-(1H-indol-3-ylmethyl)-ethylsulfamoyl]-4-methoxyphenylethynyl}-N-methyl-benzamide], the half-maximal inhibitory concentration (IC50) worked out at 2.5 µM.

Turning to `COc1ccc(-c2cc(OC)c(OC)c(OC)c2)cc1S(=O)(=O)N[C@@H](CO)Cc1c[nH]c2ccccc12` [Example 1, 4,3',4',5'-Tetramethoxy-biphenyl-3-sulfonic acid [(R)-2-hydroxy-1-(1H-indol-3-ylmethyl)-ethyl]-amide], the IC50 is 3.5 µM.

For `CNC(=O)c1ccc(-c2ccc(OC)c(S(=O)(=O)N[C@@H](CO)Cc3c[nH]c4ccccc34)c2)cc1Cl` [Example 3, 3-Chloro-3'-[(R)-2-hydroxy-1-(1H-indol-3-ylmethyl)-ethylsulfamoyl]-4'-methoxybiphenyl-4-carboxylic acid me-thylamide], the IC50 was found to be 4 µM.
